Laboratory results published in publication PMC9855884, “Glycosylated Lipopeptides—Synthesis and Evaluation of Antimicrobial Activity and Cytotoxicity” (Biomolecules, 2023).
Converted amounts (≈) assume the structure as drawn. Where a SMILES comes first, the peptide text is derived from it. The star is where a group is joined. βGlcNAc = CC(=O)N[C@@H]1[C@@H](O)[C@H](O)[C@@H](CO)O[C@H]1*; Stearoyl = CCCCCCCCCCCCCCCCCC(=O)*; Palmitoyl = CCCCCCCCCCCCCCCC(=O)*; Myristoyl = CCCCCCCCCCCCCC(=O)*

Key:
[1] = Determination of peptide hydrophobicity with RP-HPLC (adjusted retention time); format: physicochemical; details: RP-HPLC as measure of hydrophobicity; Waters X-Bridge Shield RP-18 3.0 × 100 mm, 3.5 μm; linear 20–80% acetonitrile in water over 30 min, 0.1% TFA; 0.5 mL/min; 25.0 °C; peptide 1 g/L in water (0.1% TFA); UV 214 nm; triplicate
Method: To determine peptide hydrophobicity, a Waters Alliance e2695 system with a Waters 2998 PDA Detector was used. All analyses were carried out on a Waters X-Bridge Shield RP-18 column (3.0 × 100 mm, 3.5 μm particle size, 130 Å pore size). The peptides were dissolved in water (0.1% TFA, v/v) up to a concentration of 1 g/L. UV detection at 214 nm was used, and samples (10 μL) were eluted with a linear 20–80% acetonitrile gradient in deionized water over 30 min at 25.0 ± 0.1 °C. The mobile phase flow rate was 0.5 mL/min. Both eluents contained 0.1% (v/v) of TFA. Each peptide sample was analyzed in triplicate. Maximum standard deviation and coefficient of variation were 0.046 and 0.23%, respectively.
After synthesis and purification, all the products were analyzed with MS and HPLC to confirm purity and identity of the compounds. […] The chromatographic analyses were performed with RP-HPLC; retention time refers to hydrophobicity of the lipopeptide.

S. aureus ATCC 33591 = format: cell-based, Staphylococcus aureus; details: ATCC 33591, 18 h
Method: (§1) The Acinetobacter baumannii ATCC BAA-1605, Enterococcus faecium ATCC 700221, Klebsiella aerogenes ATCC 13048, Klebsiella pneumoniae ATCC 700603, Pseudomonas aeruginosa ATCC 9027, Staphylococcus aureus ATCC 33591, Candida glabrata ATCC 15126, strains were acquired from the American Type Culture Collection (ATCC). All the strains were stored at −80 °C in Roti-Store cryo vials and were transferred into fresh Mueller–Hinton broth (MHB, Becton Dickinson, Warsaw, Poland) for bacteria or RPMI-1640 (Sigma-Aldrich, Steinheim, Germany) for fungi before the tests and incubated for 24 h at 37 °C. Then, the cultures were seeded on the Mueller–Hinton agar (BioMaxima, Lublin, Poland) or Sabouraud dextrose agar (SDA, BioMaxima, Lublin, Poland) plates, respectively, and incubated as just mentioned. These agar cultures were used for further microbiological assays. Cell densities for all assays were adjusted spectrophotometrically (Multiskan GO Microplate Spectrophotometer, Thermo Fisher Scientific, Vantaa, Finland) at 600 and 530 nm for bacteria and fungi, respectively.
(§2) The MICs were determined using a broth microdilution method according to the Clinical and Laboratory Standard Institute guidelines. For this purpose, initial inoculums of bacteria (5 × 10^5 CFU/mL) in MHB and yeasts (2 × 10^3 CFU/mL) in RPMI-1640 with 2% D-glucose were exposed to the ranging concentration of lipopeptides (1–512 μg/mL) and incubated at 37 °C for 18 h and 24 h, respectively. The experiments were conducted on 96-well microtiter polystyrene plates (Kartell, Italy). The growth was assessed visually after incubation and the MIC was assumed as the lowest peptide concentration at which a noticeable growth of microorganisms was inhibited. All experiments were conducted in triplicate.

[2] = test system: K. pneumoniae ATCC 700603; format: cell-based, Klebsiella pneumoniae; details: ATCC 700603, 18 h
Method: as §1, §2

MTT assay, cytotoxicity = format: cell-based, human; details: human, HaCaT keratinocytes, 24 h incubation at 37 °C, 0.5–500 μg/mL, six replicates per concentration, repeated at least twice
Method: To evaluate the cytotoxicity of the test peptides (IC50), the classic MTT assay on 96-well plates was performed for human keratinocytes (HaCaT) which were acquired from the ATCC. The assay was based on colorimetric determination of the cell metabolic activity where the color intensity reflected the number of live cells that could be measured spectrophotometrically. The cell line was cultured in a Dulbecco’s modified Eagle Medium (Invitrogen) supplemented with 10% fetal bovine serum (v/v), 100 units/mL of penicillin, 100 μg/mL of streptomycin, and 2 mM L-glutamine and was kept at 37 °C in a humidified 5% CO2 incubator. Briefly, a day after plating of 500 cells per well, a series of concentrations (0.5–500 μg/mL) of the test compounds were applied. DMSO was added to the control cells at a final concentration of 1.0% (v/v), which was related to the maximum concentration of the solvent compounds used in the experiment. After 24 h of incubation at 37 °C (humidified 5% CO2 incubator) with the peptides, a medium containing 1 mg/mL of MTT was added to the wells up to a final concentration of 0.5 mg/mL. Subsequently, the plates were incubated at 37 °C for 4 h. Then, the medium was aspirated, and the formazan product was solubilized with DMSO. The background absorbance at 630 nm was subtracted from that at 570 nm for each well (Epoch, BioTek Instruments, Winooski, VT, USA). Six replicates were conducted for each concentration. All experiments were repeated at least twice and the resulting IC50 values were calculated with a GraFit 7 software (v. 7.0, Erithacus, Berkley, CA, USA).
The selectivity indexes were calculated for all the strains as IC50/MIC. According to IC50, in most cases, glycosylation caused only a slight decrease in toxicity. However, in contrast with SI calculated for HC50, the differences between USCLs and gUSCLs are not so distinct. […] Moreover, toxicity of USCLs and gUSCLs is high and exceeds their antimicrobial activity. The lipopetides were not selective against Gram-negative strains (K. pneumoniae, A. baumannii, P. aeruginosa, K. aerogenes) over human cells. A few USCLs were selective (SI > 1) against E. faecium and S. aureus with SI up to 1.87; and some gUSCLs were selective against E. faecium but not against S. aureus, with SI between 0.63 and 1.73. […] In this case, SI of gUSCLs was noticeably […] than that of corresponding parent USCLs (2.07, 1.99, 2.67 vs. 2.53, 2.36, 3.46, respectively). Selectivity indexes were plotted against adjusted retention time (Figures S15–S21). A moderate linear correlation was found in USCLs and K. pneumoniae, C. glabrata, and gUSCLs and K. pneumoniae, K. aerogenes (R^2 between 0.6064 and 0.6481). A relatively high linear correlation was obtained for USCLs and K. aerogenes (R^2 of 0.8214) and also for gUSCLs and C. glabrata (R^2 of 0.9223).

Row | Structure (SMILES) | Adjusted Retention Time [1] | MIC (S. aureus ATCC 33591) | MIC [2] | IC50 at 24 h (MTT assay, cytotoxicity)
1 | CCCCCCCCCCCCCCCC(=O)N[C@@H](CCCNC(=N)N)C(=O)N[C@@H](CO)C(=O)N[C@@H](CCCNC(=N)N)C(N)=O [Peptide 5, C16-RSR-NH2] (Palmitoyl-Arg-Ser-Arg-NH2) | 19.93 min | 8 µg/mL (≈ 12.2 µM) | 64 µg/mL (≈ 97.7 µM) | 5.72 ± 2.27 µg/mL (≈ 8.73 µM)
2 | CCCCCCCCCCCCCC(=O)N[C@@H](CO[C@@H]1O[C@H](CO)[C@@H](O)[C@H](O)[C@H]1NC(C)=O)C(=O)N[C@@H](CCCNC(=N)N)C(=O)N[C@@H](CCCNC(=N)N)C(N)=O [Peptide 10, C14-S(GlcNAc)RR-NH2] (Myristoyl-Ser(βGlcNAc)-Arg-Arg-NH2) | 14.47 min | 64 µg/mL (≈ 77.1 µM) | >512 µg/mL | 32.1 ± 6.26 µg/mL (≈ 38.7 µM)
3 | CCCCCCCCCCCCCC(=O)N[C@@H](CCCNC(=N)N)C(=O)N[C@@H](CO)C(=O)N[C@@H](CCCNC(=N)N)C(N)=O [Peptide 2, C14-RSR-NH2] (Myristoyl-Arg-Ser-Arg-NH2) | 15.96 min | 8 µg/mL (≈ 12.8 µM) | 512 µg/mL (≈ 817 µM) | 15 ± 2.05 µg/mL (≈ 23.9 µM)
4 | CCCCCCCCCCCCCCCCCC(=O)N[C@@H](CO[C@@H]1O[C@H](CO)[C@@H](O)[C@H](O)[C@H]1NC(C)=O)C(=O)N[C@@H](CCCNC(=N)N)C(=O)N[C@@H](CCCNC(=N)N)C(N)=O [Peptide 16, C18-S(GlcNAc)RR-NH2] (Stearoyl-Ser(βGlcNAc)-Arg-Arg-NH2) | 22.12 min | 16 µg/mL (≈ 18.1 µM) | 64 µg/mL (≈ 72.2 µM) | 10.1 ± 0.66 µg/mL (≈ 11.4 µM)
5 | CCCCCCCCCCCCCC(=O)N[C@@H](CCCNC(=N)N)C(=O)N[C@@H](CO[C@@H]1O[C@H](CO)[C@@H](O)[C@H](O)[C@H]1NC(C)=O)C(=O)N[C@@H](CCCNC(=N)N)C(N)=O [Peptide 11, C14-RS(GlcNAc)R-NH2] (Myristoyl-Arg-Ser(βGlcNAc)-Arg-NH2) | 14.82 min | 64 µg/mL (≈ 77.1 µM) | >512 µg/mL | 25.2 ± 3.47 µg/mL (≈ 30.3 µM)
6 | CCCCCCCCCCCCCCCC(=O)N[C@@H](CCCNC(=N)N)C(=O)N[C@@H](CO[C@@H]1O[C@H](CO)[C@@H](O)[C@H](O)[C@H]1NC(C)=O)C(=O)N[C@@H](CCCNC(=N)N)C(N)=O [Peptide 14, C16-RS(GlcNAc)R-NH2] (Palmitoyl-Arg-Ser(βGlcNAc)-Arg-NH2) | 18.63 min | 16 µg/mL (≈ 18.6 µM) | 128 µg/mL (≈ 149 µM) | 14.1 ± 3.48 µg/mL (≈ 16.4 µM)
7 | CCCCCCCCCCCCCCCCCC(=O)N[C@@H](CCCNC(=N)N)C(=O)N[C@@H](CO[C@@H]1O[C@H](CO)[C@@H](O)[C@H](O)[C@H]1NC(C)=O)C(=O)N[C@@H](CCCNC(=N)N)C(N)=O [Peptide 17, C18-RS(GlcNAc)R-NH2] (Stearoyl-Arg-Ser(βGlcNAc)-Arg-NH2) | 22.50 min | 16 µg/mL (≈ 18.1 µM) | 16 µg/mL (≈ 18.1 µM) | 9.45 ± 0.89 µg/mL (≈ 10.7 µM)
8 | CCCCCCCCCCCCCCCC(=O)N[C@@H](CCCNC(=N)N)C(=O)N[C@@H](CCCNC(=N)N)C(=O)N[C@@H](CO)C(N)=O [Peptide 6, C16-RRS-NH2] (Palmitoyl-Arg-Arg-Ser-NH2) | 19.89 min | 8 µg/mL (≈ 12.2 µM) | 32 µg/mL (≈ 48.9 µM) | 7.84 ± 1.44 µg/mL (≈ 12 µM)
9 | CCCCCCCCCCCCCCCCCC(=O)N[C@@H](CCCNC(=N)N)C(=O)N[C@@H](CCCNC(=N)N)C(=O)N[C@@H](CO)C(N)=O [Peptide 9, C18-RRS-NH2] (Stearoyl-Arg-Arg-Ser-NH2) | 24.04 min | 8 µg/mL (≈ 11.7 µM) | 16 µg/mL (≈ 23.4 µM) | 10.7 ± 1.61 µg/mL (≈ 15.6 µM)
10 | CCCCCCCCCCCCCCCC(=O)N[C@@H](CO)C(=O)N[C@@H](CCCNC(=N)N)C(=O)N[C@@H](CCCNC(=N)N)C(N)=O [Peptide 4, C16-SRR-NH2] (Palmitoyl-Ser-Arg-Arg-NH2) | 20.55 min | 8 µg/mL (≈ 12.2 µM) | 512 µg/mL (≈ 782 µM) | 4.02 ± 1.17 µg/mL (≈ 6.14 µM)
11 | CCCCCCCCCCCCCC(=O)N[C@@H](CCCNC(=N)N)C(=O)N[C@@H](CCCNC(=N)N)C(=O)N[C@@H](CO)C(N)=O [Peptide 3, C14-RRS-NH2] (Myristoyl-Arg-Arg-Ser-NH2) | 15.91 min | 16 µg/mL (≈ 25.5 µM) | 512 µg/mL (≈ 817 µM) | 14.3 ± 1.96 µg/mL (≈ 22.8 µM)
12 | CCCCCCCCCCCCCCCCCC(=O)N[C@@H](CCCNC(=N)N)C(=O)N[C@@H](CO)C(=O)N[C@@H](CCCNC(=N)N)C(N)=O [Peptide 8, C18-RSR-NH2] (Stearoyl-Arg-Ser-Arg-NH2) | 24.13 min | 16 µg/mL (≈ 23.4 µM) | 32 µg/mL (≈ 46.9 µM) | 7.97 ± 1.51 µg/mL (≈ 11.7 µM)
13 | CCCCCCCCCCCCCCCCCC(=O)N[C@@H](CCCNC(=N)N)C(=O)N[C@@H](CCCNC(=N)N)C(=O)N[C@@H](CO[C@@H]1O[C@H](CO)[C@@H](O)[C@H](O)[C@H]1NC(C)=O)C(N)=O [Peptide 18, C18-RRS(GlcNAc)-NH2] (Stearoyl-Arg-Arg-Ser(βGlcNAc)-NH2) | 22.67 min | 16 µg/mL (≈ 18.1 µM) | 32 µg/mL (≈ 36.1 µM) | 13.8 ± 1.71 µg/mL (≈ 15.6 µM)
